According to US6753345B2, “7-hexanolytaxol and methods for preparing the same” (Hauser, Inc., priority 1998, dated 2004):

How the values were obtained:
HL-60(TB) = assay: cells; conditions: Homo sapiens, HL-60, 48 h, read-out: Log10 GI50 (converted)
LOX-IMVI = assay: cells; conditions: Homo sapiens, 48 h, read-out: Log10 GI50 (converted)
CCRF-CEM = assay: SRB cytotoxicity screening assay (Leukemia); conditions: for Log10 TGI: CCRF-CEM (Leukemia), PG=0, 48 hour incubation
IGR-OV1 = assay: SRB cytotoxicity screening assay (Ovarian)
OVCAR-4 = assay: SRB cytotoxicity screening assay (Ovarian)
K-562 = assay: SRB cytotoxicity screening assay (Leukemia)
MOLT-4 = assay: SRB cytotoxicity screening assay (Leukemia)
UACC-62 = assay: SRB cytotoxicity screening assay (Melanoma)
SF-539 = assay: SRB cytotoxicity screening assay (CNS Cancer); conditions: Homo sapiens, SF-539, 48 h, read-out: Log10 GI50 (converted)
SNB-19 = assay: SRB cytotoxicity screening assay (CNS Cancer)
COLO 205 = assay: SRB cytotoxicity screening assay (Colon Cancer); conditions: Homo sapiens, COLO 205, 48 h, read-out: Log10 GI50 (converted)
HCT-116 = assay: SRB cytotoxicity screening assay (Colon Cancer); conditions: HCT-116 (Colon Cancer); PG=0; 48 hour incubation
HT29 = assay: SRB cytotoxicity screening assay (Colon Cancer); conditions: Homo sapiens, HT-29, 48 h, read-out: Log10 LC50 (converted)
KM12 = assay: SRB cytotoxicity screening assay (Colon Cancer)
SW-620 = assay: SRB cytotoxicity screening assay (Colon Cancer)
786-0 = assay: SRB cytotoxicity screening assay (Renal Cancer)
A498 = assay: SRB cytotoxicity screening assay (Renal Cancer); conditions: Homo sapiens, A498, 48 h
SN12C = assay: SRB cytotoxicity screening assay (Renal Cancer); conditions: Homo sapiens, SN12C, 48 h
MCF7/ADR-RES = assay: SRB cytotoxicity screening assay (Breast Cancer)
MDA-MB-231/ATCC = assay: SRB cytotoxicity screening assay (Breast Cancer)
PC-3 = assay: SRB cytotoxicity screening assay (Prostate Cancer)
NCI-H460 = assay: SRB cytotoxicity screening assay (Non-Small Cell Lung Cancer); conditions: NCI-H460 (Non-Small Cell Lung Cancer); PG=0; 48 hour incubation
[1] = test system: cell line panel (60 lines, nine disease-related subpanels); assay: SRB cytotoxicity screening assay, whole cell line panel (mean values)
[2] = read-out: Log10 GI50 (converted)
[3] = read-out: Log10 LC50 (converted)

`CC(=O)O[C@H]1C(=O)[C@@]2(C)[C@H]([C@H](OC(=O)c3ccccc3)[C@]3(O)C[C@H](OC(=O)[C@H](O)[C@@H](NC(=O)c4ccccc4)c4ccccc4)C(C)=C1C3(C)C)[C@]1(OC(C)=O)CO[C@@H]1C[C@@H]2O` [Paclitaxel, paclitaxel, reference compound] was tested, and the GI50 (HL-60(TB)) was 0.00269 nM, the GI50 (LOX-IMVI) was 0.00158 nM and the “Log10 TGI” value (CCRF-CEM) was over −4.00 molar. For the same compound, the “Log10 TGI” value (CCRF-CEM; listed as paclitaxel) was “greater than −4.00 molar”, the GI50 (CCRF-CEM; Homo sapiens, CCRF-CEM, 48 h, read-out: Log10 GI50 (converted)) was 0.00245 nM and the GI50 (IGR-OV1; Homo sapiens, IGROV-1, 48 h, read-out: Log10 GI50 (converted)) was 2.45 nM. For the same compound, the “Log10 TGI” value (IGR-OV1; IGR-OV1 (Ovarian), PG=0, 48 hour incubation) was −4.19 molar, the GI50 (OVCAR-4; Homo sapiens, OVCAR-4, 48 h, read-out: Log10 GI50 (converted)) was 1580 nM and the “Log10 TGI” value (OVCAR-4; OVCAR-4 (Ovarian), PG=0, 48 hour incubation) was −4.19 molar. The GI50 (K-562; Homo sapiens, K562, 48 h, read-out: Log10 GI50 (converted)) was 0.0148 nM, the CC50 (K-562; Homo sapiens, K562, 48 h, read-out: Log10 LC50 (converted)) was over 100000 nM and the “Log10 TGI” value (K-562; K-562 (Leukemia), PG=0, 48 hour incubation) was over −4.00 molar. The GI50 (MOLT-4; Homo sapiens, MOLT-4, 48 h, read-out: Log10 GI50 (converted)) was 0.00851 nM, the CC50 (MOLT-4; Homo sapiens, MOLT-4, 48 h, read-out: Log10 LC50 (converted)) was over 100000 nM and the “Log10 TGI” value (MOLT-4; MOLT-4 (Leukemia), PG=0, 48 hour incubation) was over −4.00 molar. For the same compound, the GI50 (UACC-62; Homo sapiens, UACC-62, 48 h, read-out: Log10 GI50 (converted)) was 0.0347 nM, the “Log10 TGI” value (UACC-62; UACC-62 (Melanoma), PG=0, 48 hour incubation) was −4.71 molar and the GI50 (SF-539) was 0.00813 nM. The GI50 (SNB-19; Homo sapiens, SNB-19, 48 h, read-out: Log10 GI50 (converted)) was 1.05 nM, the CC50 (SNB-19; Homo sapiens, SNB-19, 48 h, read-out: Log10 LC50 (converted)) was over 100000 nM and the “Log10 TGI” value (SNB-19; SNB-19 (CNS Cancer), PG=0, 48 hour incubation) was over −4.00 molar. For the same compound, the GI50 (COLO 205) was 0.00851 nM, the “Log10 TGI” value (HCT-116) was −4.82 molar and the CC50 (HT29) was 33100 nM. For the same compound, the GI50 (KM12; Homo sapiens, KM12, 48 h, read-out: Log10 GI50 (converted)) was 0.00372 nM, the “Log10 TGI” value (KM12; KM12 (Colon Cancer), PG=0, 48 hour incubation) was −4.36 molar and the GI50 (SW-620; Homo sapiens, SW-620, 48 h, read-out: Log10 GI50 (converted)) was 0.00251 nM. For the same compound, the “Log10 TGI” value (SW-620; SW-620 (Colon Cancer), PG=0, 48 hour incubation) was over −4.00 molar, the “Log10 TGI” value (786-0; 786-0 (Renal Cancer), PG=0, 48 hour incubation) was over −4.00 molar and the GI50 (786-0; Homo sapiens, 786-0, 48 h, read-out: Log10 GI50 (converted)) was 9.77 nM. It also gave a CC50 (786-0; Homo sapiens, 786-0, 48 h, read-out: Log10 LC50 (converted)) of over 100000 nM, a GI50 (A498; [2]) of 72.4 nM and a CC50 (A498; [3]) of 74100 nM. For the same compound, the GI50 (SN12C; [2]) was 0.295 nM, the CC50 (SN12C; [3]) was over 100000 nM and the GI50 (MCF7/ADR-RES; Homo sapiens, MCF7, 48 h, read-out: Log10 GI50 (converted)) was 3.31 nM. The CC50 (MCF7/ADR-RES; Homo sapiens, MCF7, 48 h, read-out: Log10 LC50 (converted)) was over 100000 nM, the “Log10 TGI” value (MCF7/ADR-RES; MCF7/ADR-RES (Breast Cancer), PG=0, 48 hour incubation) was over −4.00 molar and the GI50 (MDA-MB-231/ATCC; Homo sapiens, MDA-MB-231, 48 h, read-out: Log10 GI50 (converted)) was 2.88 nM. For the same compound, the CC50 (MDA-MB-231/ATCC; Homo sapiens, MDA-MB-231, 48 h, read-out: Log10 LC50 (converted)) was 51300 nM, the “Log10 TGI” value (MDA-MB-231/ATCC; MDA-MB-231/ATCC (Breast Cancer), PG=0, 48 hour incubation) was −4.84 molar and the GI50 (PC-3; Homo sapiens, PC-3, 48 h, read-out: Log10 GI50 (converted)) was 0.0141 nM. The CC50 (PC-3; Homo sapiens, PC-3, 48 h, read-out: Log10 LC50 (converted)) was over 100000 nM, the “Log10 TGI” value (PC-3; PC-3 (Prostate Cancer), PG=0, 48 hour incubation) was over −4.00 molar and the “Log10 TGI” value (NCI-H460) was −4.92 molar. For the same compound, the “Log10 TGI, MG_MID” value ([1]; mean value over the cell line panel) was −4.54 molar, the GI50 ([1]; read-out: Log10 GI50, MG_MID (converted)) was 0.0708 nM and the CC50 ([1]; read-out: Log10 LC50, MG_MID (converted)) was 87100 nM.
